Data set [1] has as its target T1, Protocollagen prolyl hydroxylase (Gallus gallus, UniProt P16924).
T1 construct: partially purified enzyme preparation derived from chick embryo; from tissue; host or cells: chick embryo (partially purified enzyme preparation)
T1 sequence (P16924 1-516): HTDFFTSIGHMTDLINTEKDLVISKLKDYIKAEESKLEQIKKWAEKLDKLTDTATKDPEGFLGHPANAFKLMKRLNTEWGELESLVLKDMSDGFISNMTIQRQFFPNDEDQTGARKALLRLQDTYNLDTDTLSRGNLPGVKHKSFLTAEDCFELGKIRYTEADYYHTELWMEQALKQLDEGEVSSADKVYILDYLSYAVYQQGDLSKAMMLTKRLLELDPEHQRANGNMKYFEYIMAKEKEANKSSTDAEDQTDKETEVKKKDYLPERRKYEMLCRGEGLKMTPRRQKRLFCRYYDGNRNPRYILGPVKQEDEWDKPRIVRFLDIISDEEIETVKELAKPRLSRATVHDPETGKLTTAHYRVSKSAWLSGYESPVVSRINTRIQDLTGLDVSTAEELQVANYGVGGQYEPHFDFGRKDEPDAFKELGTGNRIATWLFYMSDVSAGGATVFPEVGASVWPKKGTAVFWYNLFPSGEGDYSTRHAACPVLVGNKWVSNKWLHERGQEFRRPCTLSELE
T1 sequence (P09102 23-515 partner): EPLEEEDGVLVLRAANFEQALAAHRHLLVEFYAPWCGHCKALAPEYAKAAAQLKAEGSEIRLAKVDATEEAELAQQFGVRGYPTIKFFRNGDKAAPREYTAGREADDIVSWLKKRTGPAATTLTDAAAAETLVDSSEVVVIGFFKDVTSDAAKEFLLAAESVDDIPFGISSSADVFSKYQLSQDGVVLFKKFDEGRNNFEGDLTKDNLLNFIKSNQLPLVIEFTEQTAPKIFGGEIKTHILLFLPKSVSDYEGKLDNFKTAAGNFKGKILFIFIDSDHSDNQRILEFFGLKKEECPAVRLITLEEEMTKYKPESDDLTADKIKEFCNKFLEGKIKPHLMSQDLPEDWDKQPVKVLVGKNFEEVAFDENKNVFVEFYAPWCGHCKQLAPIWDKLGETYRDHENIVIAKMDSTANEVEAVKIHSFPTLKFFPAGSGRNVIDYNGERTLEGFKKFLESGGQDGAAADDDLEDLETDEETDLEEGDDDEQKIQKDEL
Nature of the data set: Protocollagen prolyl hydroxylase inhibiting activity (method of R. E. Rhoads, substrate (Pro-Pro-Gly)5.4H2O). The format is biochemical, chick embryo. Conditions: for inhibition at 12.5 µM: 12.5 μM compound, 100 μg enzyme; for IC50: 100 μg (as protein) of partially purified enzyme preparation from chick embryo, read-out: Concentration of P-23924 required for a 50% inhibition. Here is the method: (a) Protocollagen prolyl hydroxylase inhibiting activity: This inhibitory activity was assayed by the method of R. E. Rhoads [Methods in Enzymology XVII B, 306 (1971)] using a partially purified enzyme preparation derived from chick embryo in accordance with the methods of K. I. Kivirriko et al and J. Halme et al. [Journal of Biological Chemistry 242, 4007 (1967) and Biochimica et Biophysica Acta 198, 460 (1967)] and, as the substrate, (Pro-Pro-Gly)5.4H2 O [manufactured by Tanpakushitsu Kenkyu Shoreikai (Protein Research Foundation Society), Osaka, Japan]. The concentrations of P-23924 required for a 50% inhibition of 100 μg (as protein) of said partially purified enzyme preparation were as follows.
On the other hand, by a similar procedure as above, the protocollagen prolyl hydroxylase inhibiting activities on the compounds of P-23924 AR, BR, CR and DR are measured.

A short description of data set [2]: Solubility. The format is physicochemical.
The target of data set [3] is T1, Protocollagen prolyl hydroxylase. The data set is described as follows: Protocollagen prolyl hydroxylase inhibiting activity (method of R. E. Rhoads, substrate (Pro-Pro-Gly)5.4H2O). The format is biochemical, chick embryo. The following applies: 3.13 μM compound, 20 μg enzyme.
Data set [4] relates to collagen biosynthesis (uterus). Nature of the data set: Collagen biosynthesis suppressant activity in uterus of estradiol-17β treated rats (method of T. Ishimaru et al). The following applies: for Body weight of rats / Collagen content of uterus / Total protein content of uterus: groups of 10; for % Inhibition: Non-collagenous protein: total protein content - collagen. The format is in vivo, SD rats. The text has this: (b) Collagen biosynthesis suppressant activity: In accordance with the method of T. Ishimaru et al [Biochemical Pharmacology 31, 915 (1982)], P-23924 was intraperitoneally administered to SD rats (females, 3 weeks old) once daily for 6 consecutive days and the collagen content and non-collagenous protein content of the uterus were compared with those of control animals. […] I | said tests, rats were used in groups of 10 individuals.

Data set [5] is described as follows: Description (acidity, fat solubility). The format is physicochemical.
Data set [6] in a line: Acute toxicity [LD50] by the intraperitoneal route. Conditions: rat, in vivo, ip, rats. The text has this: The acute toxicity [LD50 ] values of P-23924 in rats by the intraperitoneal route are given below.
Setting [7] is: in dimethylsulfoxide, pyridine, ethyl acetate, chloroform, dioxan.
Where [8] appears, read: 1 mg/kg i.p. once daily 6 days + Estradiol-17β (5 μg), P < 0.05 (B: P < 0.02, C: P < 0.01).
Setting [9] is: 1 mg/kg i.p. once daily 6 days + Estradiol-17β (5 μg).
[10] abbreviates: in acetone, chloroform, n-hexane and petroleum ether.
[11] abbreviates: in dimethyl sulfoxide, dimethylformamide, pyridine and 5% aqueous sodium hydrogen carbonate.
The mark [12] stands for this setting: in methanol, dioxane and acetic acid.
The mark [13] stands for this setting: in chloroform, n-hexane and petroleum ether.
Setting [14] is: 50 mg/kg i.p. once daily 6 days + Estradiol-17β (5 μg).

SMILES strings stand for the structures.

For the molecule `COc1cc2c(c(O)c1C)C(=O)C(C)=CC2=O` [P-23924 AR], the inhibition at 12.5 µM in data set [1] worked out at 26%. In addition, the Solubility entry was “readily or easily soluble” in data set [2] (setting [7]); “slightly soluble or insoluble” in data set [2] (in n-hexane, petroleum ether); “slightly soluble or insoluble” in data set [2] (in water). Moreover, the inhibition at 3.13 µM in data set [3] is 37%.
On to `COC1=C(C)C(=O)c2c(cc(OC)c(C)c2O)C1=O` [P-23924 BR], for which at 12.5 µM the inhibition in data set [1] was 22%. Further, the Solubility result in data set [2] (setting [7]) is listed as “readily or easily soluble”; in data set [2] (in n-hexane, petroleum ether), “slightly soluble or insoluble”; in data set [2] (in water) it was “slightly soluble or insoluble”. Besides, at 3.13 µM the inhibition in data set [3] was 26%.
The molecule `COC1=CC(=O)c2c(cc(OC)c(C)c2O)C1=O` [P-23924 CR] registered an inhibition at 12.5 µM in data set [1] of 33%. Moreover, the Solubility result is reported as “readily or easily soluble” in data set [2] (setting [7]); “slightly soluble or insoluble” in data set [2] (in n-hexane, petroleum ether); “slightly soluble or insoluble” in data set [2] (in water). This molecule also yielded an inhibition at 3.13 µM in data set [3] of 40%.
The molecule `COC1=C(C)C(=O)c2c(cc(O)c(C)c2O)C1=O` [P-23924 DR] gave an inhibition at 12.5 µM in data set [1] of 20%. The Solubility entry is given as “readily or easily soluble” in data set [2] (setting [7]); “slightly soluble or insoluble” in data set [2] (in n-hexane, petroleum ether); “slightly soluble or insoluble” in data set [2] (in water). In addition, in data set [3], the inhibition at 3.13 µM turned out to be 33%.
`COc1cc2c(c(O)c1CSCC(NC(C)=O)C(=O)O)C(=O)C(C)=CC2=O` (stereo not shown) [P-23924A]: the “% Inhibition: Collagen” value in data set [4] (setting [8]) was 33%. In data set [4] (setting [9]), the “Body weight of rats” value was determined as 73 ± 3 g. Also, the “Collagen content of uterus” value in data set [4] (setting [9]) is given as 2.53 ± 0.35 mg. Further, the “Total protein content of uterus” value in data set [4] (setting [9]) worked out at 15.67 ± 1.63 mg. Besides, in data set [4] (setting [9]), the “% Inhibition: Non-collagenous protein” value is 10%. Besides, the Description entry in data set [5] was “acidic and fat-soluble”. Moreover, the IC50 in data set [1] was determined as 67 µM. The Solubility result in data set [2] (setting [10]) is “slightly soluble or insoluble”; in data set [2] (setting [11]), “easily soluble”; in data set [2] (setting [12]), “soluble”; in data set [2] (in water), “slightly soluble or insoluble”. Further, the LD50 in data set [6] was 100 to 200 mg/kg.
For the molecule `COC1=C(C)C(=O)c2c(cc(OC)c(CSCC(NC(C)=O)C(=O)O)c2O)C1=O` (stereo not shown) [P-23924B], the “% Inhibition: Collagen” value in data set [4] (setting [8]) is 46%. Further, the “Body weight of rats” value in data set [4] (setting [9]) is 70 ± 5 g. Further, in data set [4] (setting [9]), the “Collagen content of uterus” value is given as 2.37 ± 0.43 mg. Also, in data set [4] (setting [9]), the “% Inhibition: Non-collagenous protein” value is 19%. Further, the Description result in data set [5] was “acidic and fat-soluble”. For the same molecule, the IC50 in data set [1] came to 95 µM. For the same molecule, the Solubility entry was “slightly soluble or insoluble” in data set [2] (setting [10]), “easily soluble” in data set [2] (setting [11]), “soluble” in data set [2] (setting [12]) and “slightly soluble or insoluble” in data set [2] (in water). In data set [6], this molecule returned an LD50 of 50 to 100 mg/kg.
`COC1=CC(=O)c2c(cc(OC)c(CSCC(NC(C)=O)C(=O)O)c2O)C1=O` (stereo not shown) [P-23924C]: the “% Inhibition: Collagen” value in data set [4] (setting [8]) amounted to 61%. In addition, the “Body weight of rats” value in data set [4] (setting [9]) stood at 73 ± 6 g. The “Collagen content of uterus” value in data set [4] (setting [9]) was 2.19 ± 0.49 mg. Also, the “Total protein content of uterus” value in data set [4] (setting [9]) was 14.01 ± 1.51 mg. Also, in data set [4] (setting [9]), the “% Inhibition: Non-collagenous protein” value turned out to be 30%. The Description entry in data set [5] is “acidic and fat-soluble”. For the same molecule, the IC50 in data set [1] worked out at 57 µM. For the same molecule, the Solubility result is listed as “slightly soluble or insoluble” in data set [2] (setting [13]); “easily soluble” in data set [2] (setting [11]); “soluble” in data set [2] (in methanol, dioxane, acetone and acetic acid); “slightly soluble or insoluble” in data set [2] (in water). For the same molecule, in data set [6], the LD50 lay in the range of 100 to 200 mg/kg.
With `COC1=C(C)C(=O)c2c(cc(O)c(CSCC(NC(C)=O)C(=O)O)c2O)C1=O` (stereo not shown) [P-23924D], the “% Inhibition: Collagen” value in data set [4] (50 mg/kg i.p. once daily 6 days + Estradiol-17β (5 μg), P < 0.05) worked out at 32%. Also, the “Body weight of rats” value in data set [4] (setting [14]) stood at 72 ± 3 g. Besides, the “Collagen content of uterus” value in data set [4] (setting [14]) was 2.55 ± 0.30 mg. Also, the “Total protein content of uterus” value in data set [4] (setting [14]) is listed as 15.63 ± 1.43 mg. Also, the “% Inhibition: Non-collagenous protein” value in data set [4] (setting [14]) was 11%. Moreover, the Description entry in data set [5] was “acidic and fat-soluble”. The IC50 in data set [1] came to 270 µM. Besides, the Solubility result in data set [2] (setting [10]) is listed as “slightly soluble or insoluble”; in data set [2] (setting [11]), “easily soluble”; in data set [2] (setting [12]), “soluble”; in data set [2] (in water), “slightly soluble or insoluble”. In addition, the LD50 in data set [6] is above 400 mg/kg.
As for `COc1cc2c(c(O)c1CSCC(NC(C)=O)C(=O)O)C(=O)C(CO)=CC2=O` (stereo not shown) [P-23924E], the “% Inhibition: Collagen” value in data set [4] (setting [8]) was found to be 34%. Further, in data set [4] (setting [9]), the “Body weight of rats” value is given as 72 ± 4 g, the “Collagen content of uterus” value amounted to 2.52 ± 0.36 mg, the “Total protein content of uterus” value is given as 15.73 ± 1.59 mg and the “% Inhibition: Non-collagenous protein” value turned out to be 9%. For the same molecule, the Description result in data set [5] is “acidic and fat-soluble”. The IC50 in data set [1] came out at 21 µM. Moreover, the Solubility entry in data set [2] (setting [13]) is “slightly soluble or insoluble”. Besides, in data set [2] (in dimethyl sulfoxide, dimethylformamide, pyridine, 5% aqueous sodium hydrogen carbonate and methanol), the Solubility result is given as “easily soluble”. Further, in data set [2] (in dioxane and acetic acid), the Solubility result is “soluble”. Further, the Solubility entry in data set [2] (in water) is reported as “slightly soluble or insoluble”. Moreover, the LD50 in data set [6] was around 50 mg/kg.
Consider `COC1=C(CO)C(=O)c2c(cc(OC)c(CSCC(NC(C)=O)C(=O)O)c2O)C1=O` (stereo not shown) [P-23924F], for which the “% Inhibition: Collagen” value in data set [4] (setting [8]) came to 38%. In data set [4] (setting [9]), the “Body weight of rats” value is 71 ± 3 g. Besides, in data set [4] (setting [9]), the “Collagen content of uterus” value came out at 2.47 ± 0.57 mg. Besides, the “Total protein content of uterus” value in data set [4] (setting [9]) amounted to 15.20 ± 1.53 mg. The “% Inhibition: Non-collagenous protein” value in data set [4] (setting [9]) was 15%. The Description result in data set [5] was “acidic and fat-soluble”. The IC50 in data set [1] was 21 µM. Besides, the Solubility result in data set [2] (setting [10]) is on record as “slightly soluble or insoluble”; in data set [2] (setting [11]), “easily soluble”; in data set [2] (setting [12]) it was “soluble”; in data set [2] (in water) it was “slightly soluble or insoluble”. In addition, the LD50 in data set [6] lay within 50 to 100 mg/kg.
